Data published in patent publication US8765779B2, “Tricyclic derivatives and their pharmaceutical use and compositions” (Cephalon, Inc., priority 2009, dated 2014).

These compounds were tested against T1, human 5-HT6 receptor (Homo sapiens, UniProt P50406) (assay: Human 5-HT6 Receptor Binding Assay ([3H]LSD displacement, scintillation beads)). Details: membranes of CHO-K1 cells with recombinant human 5-HT6, 4 nM [3H]LSD; Table 1, class symbols; read-out: h5-HT6 (Ki).
T1 construct: host or cells: CHO-K1 cells, stably transfected; membranes prepared in house
T1 sequence (P50406 whole entry): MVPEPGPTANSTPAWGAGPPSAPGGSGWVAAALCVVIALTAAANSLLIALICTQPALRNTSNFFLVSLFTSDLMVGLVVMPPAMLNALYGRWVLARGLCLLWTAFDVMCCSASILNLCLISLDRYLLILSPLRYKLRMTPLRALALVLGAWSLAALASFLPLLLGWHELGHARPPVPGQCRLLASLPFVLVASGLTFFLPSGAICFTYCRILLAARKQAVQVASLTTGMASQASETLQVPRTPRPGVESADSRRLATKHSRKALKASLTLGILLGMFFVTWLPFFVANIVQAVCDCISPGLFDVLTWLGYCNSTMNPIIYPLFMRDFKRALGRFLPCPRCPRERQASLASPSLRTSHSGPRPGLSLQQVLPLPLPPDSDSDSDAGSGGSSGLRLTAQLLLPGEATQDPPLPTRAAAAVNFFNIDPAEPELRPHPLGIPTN
Method: Human 5-HT6 Receptor Binding Assay
Membranes were prepared from CHO—K1 cells stably transfected with the human 5-HT6 receptor (Euroscreen; ES-316-C). The cells were grown in Gibco Advanced DMEM-F12 (Cat#12634010) containing 2% dialyzed FBS (Hyclone Cat#SH30079.03). The cells were harvested in phosphate buffered saline (PBS) containing 0.1 mM EDTA and pelleted by centrifugation (1000×g), the supernatant was discarded and the pellets were stored at −80° C. prior to membrane preparation. Membranes were prepared as previously described (J Bio Chem. 1992, 267 (14) 9844-51). Briefly, frozen cell pellet was resuspended in a lysis buffer containing 5 mM Tris-HCl (pH 7.5), 5 mM EDTA and 1 complete EDTA-free protease inhibitor tablet (Roche Applied Science, Indianapolis, Ind.) per 50 mL buffer, and homogenized with a tissue homogenizer. The cell lysate was then centrifuged at 40,000×g for 30 min at 4° C. to collect the membranes. The membrane pellets were washed in membrane buffer (50 mM Tris-HCl (pH 7.5), 0.6 mM EDTA, 5 mM MgCl2, 1 complete EDTA-free protease inhibitor tablet per 50 mL buffer) using a tissue homogenizer. The membranes were centrifuged at 40,000×g for 30 min at 4° C. and the pellets were resuspended in membrane buffer containing 250 mM sucrose, and protein concentration was determined using the Coomassie Plus kit (Pierce Biotechnology, Rockford, Ill.).
Membranes prepared from cells expressing recombinant human 5-HT6 receptor (h5-HT6) were resuspended in assay buffer containing 50 mM Tris HCl, (pH7.4), 4 mM CaCl2, 10 μg/mL saponin, and 0.1% (w/v) ascorbic acid. Membranes were preincubated using 1.75 μg membrane protein and 0.25 mg FlashBlue scintillation beads (PerkinElmer catalogue #FB001) per well at 4° for 30 min. […] Test compounds or assay controls for total and non-specific binding were diluted in DMSO as 100× solutions and serially diluted by half log concentrations on a Perkin Elmer JANUS Automated Workstation. Serotonin (10 μM final concentration) was used to determine non-specific binding in the assay. Plates were read using the Microbeta Trilux 1450 LSC and luminescence counter. Data were analyzed by nonlinear […] using the dose-response equation (variable slope) to calculate IC50 in XLfit4 (ID Business Solutions Inc.): y=(Bottom+((Top−Bottom)/(1+((IC50/x)^Hill slope))))
Ki value was then calculated according to the Cheng-Prusoff method using the equation below (Cheng and Prusoff, 1973): Ki,app=IC50/(1+[radioligand]/Kd))

SMILES | Ki [nM]
O=S(=O)(c1ccc2c3c(oc2c1)CNCC3)c1ccccn1 [Example 345] | < 500
[O-][S+](c1ccc2oc3c(c2c1)CCNC3)c1cccnc1Cl (stereo not shown) [Example 445] | > 1000
O=S(=O)(c1cccnc1)c1ccc2c(c1)OC1CNCCC21 (stereo not shown) [Example 393] | > 1000
O=S(=O)(c1ccc2c(c1)OC1CNCCC21)c1cccnc1OCC(F)(F)F (stereo not shown) [Example 395] | < 500
O=S(=O)(Oc1ccc2c(c1)OC1CNCCC21)c1cccc(Cl)c1 (stereo not shown) [Example 653] | < 500
CC12CCNCC1Oc1ccc(OS(=O)(=O)c3cccc(C(F)(F)F)c3)cc12 (stereo not shown) [Example 780] | > 1000
O=S(=O)(Oc1ccc2c(c1)C1CCNCC1O2)c1csc2ccccc12 (stereo not shown) [Example 725] | < 500
O=S(=O)(Nc1ccc(Cl)cc1)c1ccc2c(c1)C1CCNCC1O2 (stereo not shown) [Example 836, N-(4-Chlorophenyl)-1,2,3,4,4a,9a-hexahydro[1]benzofuro[2,3-c]pyridine-6-sulfonamide] | > 1000
O=S(=O)(Oc1ccc2c(c1)OC1CN(C3CCC3)CCC21)c1ccc(Cl)cc1 (stereo not shown) [Example 800] | > 1000
CC1(C)NCCc2c1oc1cc(S(=O)(=O)c3cncc(F)c3)ccc21 [Example 381] | < 500
CC1(C)CNC(C2CCOCC2)c2oc3cc(S(=O)(=O)c4cccc(F)c4)ccc3c21 (racemic) [Example 45, 7-[(3-fluorophenyl)sulfonyl]-4,4-dimethyl-1-(tetrahydro-2H-pyran-4-yl)-1,2,3,4-tetrahydro[1]benzofuro[2,3-c]pyridine] | < 500
CC(C)c1ccc(S(=O)(=O)Oc2ccc3c(c2)OC2CNCCC32)cc1 (stereo not shown) [Example 794] | < 500
O=S(=O)(c1cc(F)cc(Cl)c1)c1ccc2c(c1)OC1CNCCC21 (stereo not shown) [Example 157] | < 500
COc1ccc(S(=O)(=O)c2ccc3oc4c(c3c2)CCNC4)cc1 [Example 245] | < 500
Cc1c(S(=O)(=O)Oc2ccc3c(c2)OC2CNCCC32)sc2ccc(Cl)cc12 (stereo not shown) [Example 797] | < 500
O=S(=O)(c1ccc2c3c(oc2c1)CNCC3)c1cccnc1F [Example 434] | < 500
Cc1cccc(S(=O)(=O)c2ccc3c(c2)OC2CNCCC32)c1 (stereo not shown) [Example 141] | < 500
CC12CCNCC1Oc1ccc(OS(=O)(=O)c3ccc(Cl)cc3)cc12 (stereo not shown) [Example 757] | > 1000
[O-][S+](c1ccc2c3c(oc2c1)CNCC3)c1ccccc1Cl (stereo not shown) [Example 229] | < 500
CC1NCCc2c1oc1ccc(S(=O)(=O)c3ccc(F)c(F)c3)cc21 (stereo not shown) [Example 284] | < 500

SMILES | Ki [nM]
O=S(=O)(c1ccc2c(c1)OC1CNCCC21)c1c(F)c(F)cc(F)c1F (stereo not shown) [Example 150] | < 500
[O-][S+](c1ccc2c(c1)OC1CNCCC21)c1c(F)c(F)cc(F)c1F (stereo not shown) [Example 144] | > 1000
O=S(=O)(c1cccc(OC(F)(F)F)c1)c1ccc2c3c(oc2c1)C1(CCOCC1)NCC3 [Example 300, 7-{[3-(trifluoromethoxy)phenyl]sulfo-nyl}-2′,3,3′,4,5′,6′-hexahydro-2H-spiro[1-benzofuro[2,3-c]pyridine-1,4′-pyran]] | < 500
O=S(=O)(Nc1ccc2c(c1)C1CCNCC1O2)c1cc(Cl)cc(Cl)c1 (stereo not shown) [Example 828] | < 500
CC12CCN(C3CCCCC3)CC1Oc1ccc(OS(=O)(=O)Cc3ccccc3)cc12 (stereo not shown) [Example 807] | > 1000
O=S(=O)(c1ccc2c(c1)OCCO2)c1ccc2c3c(oc2c1)CNCC3 [Example 200] | < 500
COc1cc(F)cc(S(=O)(=O)c2ccc3c(c2)OC2CNCCC32)c1 (stereo not shown) [Example 420] | < 500
COc1ccc(S(=O)(=O)c2ccc3c(c2)OC2CNCCC32)cc1 (stereo not shown) [Example 325] | 500 to 1000
COc1cc(OC2CCC2)cc(S(=O)(=O)c2ccc3c(c2)OC2CNCCC32)c1 (stereo not shown) [Example 583] | < 500
O=S(=O)(c1cccc(C(F)(F)F)c1)c1ccc2c(c1)OC1CNCCC21 (stereo not shown) [Example 161, 7-{[3-(trifluoromethyl)phenyl]sulfonyl}-1,2,3,4,4a,9a-hexahydro[1]benzofuro[2,3-c]pyridine] | < 500
O=S(=O)(c1ccc2oc3c(c2c1)CCNC3)c1cccnc1OCC(F)(F)F [Example 448] | < 500
O=S(=O)(Oc1ccc2c(c1)OC1CNCCC21)c1ccc(F)c(Cl)c1 (stereo not shown) [Example 663] | < 500
COCC1NCCc2c1oc1cc(S(=O)(=O)c3cccc(F)c3)ccc21 (stereo not shown) [Example 498] | < 500
COc1cccc(S(=O)(=O)Oc2ccc3c(c2)C2(C)CCNCC2O3)c1 (stereo not shown) [Example 761] | > 1000
[O-][S+](c1ccc2c(c1)OC1CNCCC21)c1cccnc1Cl (stereo not shown) [Example 389] | > 1000
COCC1(COC)NCCc2c1oc1cc(S(=O)(=O)c3cccc(F)c3)ccc21 [Example 39, 7-[(3-fluorophenyl)sulfonyl]-1,1-bis(methoxymethyl)-1,2,3,4-tetrahydro[1]benzofuro[2,3-c]pyridine] | < 500
O=S(=O)(c1ccc2c3c(oc2c1)CNCC3)c1cc(Cl)ccc1Cl [Example 215, 7-[(2,5-dichlorophenyl)sulfonyl]-1,2,3,4-tetrahydro[1]benzofuro[2,3-c]pyridine] | < 500
O=S(=O)(c1cc(F)cc(OCC2CCOCC2)c1)c1ccc2c(c1)OC1CNCCC21 (stereo not shown) [Example 591] | < 500
CC1(C)NCCc2c1oc1cc(S(=O)(=O)c3cccc(C(F)(F)F)c3)ccc21 [Example 289] | < 500
O=S(=O)(c1cccc(F)c1)c1ccc2oc3c(c2c1)CCNC3CC(F)(F)F (stereo not shown) [Example 518] | > 1000

SMILES | Ki [nM]
O=S(=O)(c1cccc(F)c1)c1ccc2c3c(oc2c1)C1(CCC1)NCC3 [Example 25, 7-[(3-fluorophenyl)sulfonyl]-3,4-dihydro-2H-spiro[1-benzofuro[2,3-c]pyridine-1,1′-cyclobutane]] | < 500
COc1cccc(S(=O)(=O)c2ccc3c(c2)OC2CNCCC32)c1 (stereo not shown) [Example 118] | < 500
O=S(=O)(Oc1ccc2c(c1)OC1CNCCC21)c1ccc(-n2cccn2)cc1 (stereo not shown) [Example 671] | < 500
O=S(=O)(Oc1ccc2c(c1)OC1CNCCC21)c1c(Cl)cccc1Cl (stereo not shown) [Example 679] | < 500
CC(=O)N(C)CCC1NCCc2c1oc1ccc(S(=O)(=O)c3cccc(F)c3)cc21 (stereo not shown) [Example 534, N-(2-{6-[(3-Fluorophenyl)sulfonyl]-1,2,3,4-tetrahydro[1]benzofuro[2,3-c]pyridin-1-yl}ethyl)-N-methylacetamide] | < 500
O=S(=O)(c1ccc2c(c1)OC1CNCCC21)c1ccccc1F (stereo not shown) [Example 146] | < 500
O=S(=O)(Nc1ccc2c(c1)C1CCNCC1O2)c1ccc(Cl)cc1 (stereo not shown) [Example 823] | < 500
[O-][S+](c1ccc2oc3c(c2c1)CCNC3)c1cccc(F)c1F (stereo not shown) [Example 442] | > 1000
O=S(=O)(c1ccc2c(c1)OC1CNCCC21)c1cccnc1OCC(F)(F)F (stereo not shown) [Example 394] | < 500
O=S(=O)(c1cccc(F)c1)c1ccc2c3c(oc2c1)C1(CCOC1)NCC3 (racemic) [Example 30, 7-[(3-fluorophenyl)sulfonyl]-3,4,4′,5′-tetrahydro-2H-spiro[1-benzofuro[2,3-c]pyridine-1,3′-furan]] | < 500
O=S(=O)(c1ccccc1)c1ccc2c3c(oc2c1)[C@@]1(CCOC1)NCC3 (single isomer, unassigned) [Example 108] | < 500
O=S(=O)(Nc1ccc2c(c1)C1CCNCC1O2)c1cc2ccccc2s1 (stereo not shown) [Example 834] | < 500
CC(C)N1CCC2c3ccc(S(=O)(=O)c4ccccc4)cc3OC2C1 (stereo not shown) [Example 608, 7-(phenylsulfonyl)-2-(propan-2-yl)-1,2,3,4,4a,9a-hexahydro[1]benzofuro[2,3-c]pyridine] | < 500
O=S(=O)(c1cccc(F)c1)c1ccc2oc3c(c2c1)CCNC3CCC(F)(F)F (stereo not shown) [Example 519] | 500 to 1000
O=S(=O)(c1ccncc1)c1ccc2oc3c(c2c1)CCNC3 [Example 352] | > 1000
CC(C)c1ccc(S(=O)(=O)Oc2ccc3c(c2)C2(C)CCNCC2O3)cc1 (stereo not shown) [Example 766] | 500 to 1000
O=S(=O)(c1cccc(F)c1)c1ccc2oc3c(c2c1)CCNC3C1CC1 (stereo not shown) [Example 517] | < 500
O=S(=O)(c1ccc2c(c1)OC1CNCCC21)c1cccc(F)c1F (stereo not shown) [Example 399] | < 500
COc1ccccc1NS(=O)(=O)c1ccc2c(c1)C1CCNCC1O2 (stereo not shown) [Example 841] | > 1000

Same assay, conditions: membranes of CHO-K1 cells with recombinant human 5-HT6, 4 nM [3H]LSD; specific data; read-out: h5-HT6 (Ki)

SMILES | Ki [nM]
O=S(=O)(c1cccc(C(F)(F)F)c1)c1ccc2c(c1)OC1CNCCC21 (stereo not shown) [Example 161, 7-{[3-(trifluoromethyl)phenyl]sulfonyl}-1,2,3,4,4a,9a-hexahydro[1]benzofuro[2,3-c]pyridine] | 44
CC(C)N1CCC2c3ccc(S(=O)(=O)c4ccccc4)cc3OC2C1 (stereo not shown) [Example 608, 7-(phenylsulfonyl)-2-(propan-2-yl)-1,2,3,4,4a,9a-hexahydro[1]benzofuro[2,3-c]pyridine] | 49.4
